This note sets out measurements from US20250304567A1, “PYRROLIDIONE DERIVATIVES AS INHIBITORS OF NF KAPPA B INDUCING KINASE” (priority 2022, published 2025).

In assay [1] the target is Recombinant Human NF-kappaB-Inducing Kinase (NIK/MAP3K14) (Homo sapiens, UniProt Q99558). The assay is described as follows: Inhibition of auto-phosphorylation of recombinant human NIK/MAP3K14 activity (AlphaScreen). The note with it: 5 μM ATP, 1 nM NIK, average if tested more than once. It is filed as biochemical. The method in brief: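 GST-tagged NIK (1 nM) auto-phosphorylation with 5 μM ATP, 2 h at 25 °C, pH 7.5 Tris buffer, 0.7% DMSO; stopped with anti-phospho-IKK Ser176/180 antibody and read by AlphaScreen. Signal normalized to full-activity and no-enzyme/no-ATP controls; IC50 from sigmoidal fit of % inhibition vs log concentration.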

Assay [2] has as its system p-IKKa levels in L363 (NIK translocated multiple myeloma) cells. The assay is described as follows: Effect of compounds on p-IKKa levels in L363 (NIK translocated multiple myeloma) cells (AlphaLISA SureFire Ultra p-IKKa Ser176/180). It is filed as cell-based, human. The following applies: Homo sapiens, L-363, p-IKKa levels in L363 cells; average if tested more than once; read-out: Assay 2 IC50. A digest of the protocol: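 L363 multiple myeloma cells, BAFF-stimulated overnight (250 ng/ml), then 6 h at 37 °C with compound (11-point 1:3 series, 0.3% DMSO) plus BAFF and 10 μM MG132. p-IKKa Ser176/180 read by AlphaLISA SureFire Ultra; IC50 from sigmoidal fit normalised to stimulated and unstimulated controls.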
In general terms: In Alpha technology, singlet oxygen from a donor bead excites a nearby acceptor bead.

pIC50: −log10 of the molar value. Some results are limits rather than exact numbers.

Sequence of Recombinant Human NF-kappaB-Inducing Kinase (NIK/MAP3K14) (Q99558 whole entry): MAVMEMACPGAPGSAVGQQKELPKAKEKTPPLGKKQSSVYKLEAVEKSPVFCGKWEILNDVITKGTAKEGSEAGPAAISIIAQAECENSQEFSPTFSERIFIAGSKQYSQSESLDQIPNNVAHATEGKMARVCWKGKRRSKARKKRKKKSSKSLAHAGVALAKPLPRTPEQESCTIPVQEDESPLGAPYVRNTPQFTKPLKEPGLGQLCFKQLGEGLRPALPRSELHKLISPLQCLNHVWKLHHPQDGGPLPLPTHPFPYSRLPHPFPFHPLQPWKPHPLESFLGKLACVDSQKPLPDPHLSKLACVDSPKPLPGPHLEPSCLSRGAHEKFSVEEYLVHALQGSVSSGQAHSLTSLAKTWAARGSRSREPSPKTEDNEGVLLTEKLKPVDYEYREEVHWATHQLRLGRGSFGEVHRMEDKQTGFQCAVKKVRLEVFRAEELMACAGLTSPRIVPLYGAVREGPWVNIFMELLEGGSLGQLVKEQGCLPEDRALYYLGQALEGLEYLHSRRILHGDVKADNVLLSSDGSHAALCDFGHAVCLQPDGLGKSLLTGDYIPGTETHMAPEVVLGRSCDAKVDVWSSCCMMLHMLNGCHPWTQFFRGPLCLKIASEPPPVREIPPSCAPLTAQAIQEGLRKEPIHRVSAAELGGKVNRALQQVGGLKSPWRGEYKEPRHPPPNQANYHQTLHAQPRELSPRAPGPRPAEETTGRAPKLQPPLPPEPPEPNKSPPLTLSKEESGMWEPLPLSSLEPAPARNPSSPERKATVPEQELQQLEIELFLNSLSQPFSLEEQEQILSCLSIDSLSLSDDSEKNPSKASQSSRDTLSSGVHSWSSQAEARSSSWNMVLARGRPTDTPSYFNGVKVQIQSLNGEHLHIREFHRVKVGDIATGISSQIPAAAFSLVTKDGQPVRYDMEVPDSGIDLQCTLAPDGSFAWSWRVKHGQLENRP

A word on the pIC50: it is −log10 of the IC50, conventionally taken in molar units. As to `CN1CC[C@@](O)(c2cccc(-c3csc(-c4ccnc(Nc5ccnn5C)n4)n3)c2)C1=O` [Example 5, (R)-3-hydroxy-1-methyl-3-(3-(2-(2-((1-methyl-1H-pyrazol-5-yl)amino)pyrimidin-4-yl)thiazol-4-yl)phenyl)pyrrolidin-2-one], the pIC50 in assay [1] and in assay [2] was above 7.00 throughout.
Take `Cc1nc(Nc2nccc(-c3csc(-c4cccc([C@]5(O)CCN(C)C5=O)c4)n3)n2)sc1C` [Example 233]: the values for the pIC50 in assay [1] and in assay [2] were above 7.00 and 6.30 to 7.00, respectively.
As to `CN1CC[C@@](O)(c2cccc(-c3csc(-c4ccnc(NC5COC5)n4)n3)c2)C1=O` [Example 128, (R)-3-hydroxy-1-methyl-3-(3-(2-(2-(oxetan-3-ylamino)pyrimidin-4-yl)thiazol-4-yl)phenyl)pyrrolidin-2-one], the negative-log IC50 (pIC50) in assay [1] is above 7.00; in assay [2], 6.30 to 7.00.
As to `CO[C@H]1C[C@H](Nc2nccc(-c3csc(-c4cccc([C@]5(O)CCN(C)C5=O)c4)n3)n2)C1` [Example 215], the results for the pIC50 in assay [1] and in assay [2] were above 7.00 and below 6.30, respectively.
`CN1CC[C@@](O)(c2cccc(-c3nc(-c4ccnc(N[C@H]5CCOC5)n4)cs3)c2)C1=O` [Example 250]: the figures for the pIC50 in assay [1] and in assay [2] were above 7.00 and below 6.30, respectively.
Regarding `CN1CC[C@@](O)(c2cccc(-c3nc(-c4ccnc(NCc5ccncn5)n4)cs3)c2)C1=O` [Example 217], the pIC50 was 6.30 to 7.00 in assay [1] and below 6.30 in assay [2].
Take `Cc1ccc(CNc2nccc(-c3csc(-c4cccc([C@]5(O)CCN(C)C5=O)c4)n3)n2)cn1` [Example 204]: the pIC50 in assay [1] is above 7.00; in assay [2], below 6.30.
For the compound `CCn1ncc(C)c1Nc1nccc(-c2csc(-c3cccc([C@]4(O)CCN(C)C4=O)c3)n2)n1` [Example 64, (R)-3-(3-(4-(2-((1-ethyl-4-methyl-1H-pyrazol-5-yl)amino)pyrimidin-4-yl)thiazol-2-yl)phenyl)-3-hydroxy-1-methylpyrrolidin-2-one], the pIC50 in assay [1] and in assay [2] was below 6.30 throughout.
Consider `CN1CC[C@@](O)(c2cccc(-c3nc(-c4ccnc(Nc5cccnc5OC(F)F)n4)cs3)c2)C1=O` [Example 282, (R)-3-(3-(4-(2-((2-(Difluoromethoxy)pyridin-3-yl)amino)pyrimidin-4-yl)thiazol-2-yl)phenyl)-3-hydroxy-1-methylpyrrolidin-2-one], for which the pIC50 in assay [1] was above 7.00; in assay [2], 6.30 to 7.00.
Turning to `Cc1cc(CNc2nccc(-c3csc(-c4cccc([C@]5(O)CCN(C)C5=O)c4)n3)n2)nn1C` [Example 209], the figures for the pIC50 in assay [1] and in assay [2] were above 7.00 and below 6.30, respectively.
`CN1CC[C@@](O)(c2cccc(-c3nc(-c4ccnc(NC5(c6ccccn6)CC5)n4)cs3)c2)C1=O` [Example 224]: the pIC50 in assay [1] is 6.30 to 7.00; in assay [2], below 6.30.
Turning to `CNc1nccc(-c2csc(-c3cccc([C@]4(O)CCN(C)C4=O)c3)n2)n1` [Example 170], the pIC50 is 6.30 to 7.00 in assay [1] and below 6.30 in assay [2].
As for `CC(=O)N1CC[C@H](Nc2nccc(-c3csc(-c4cccc([C@]5(O)CCN(C)C5=O)c4)n3)n2)C1` [Example 221], the results for the pIC50 in assay [1] and in assay [2] were 6.30 to 7.00 and below 6.30, respectively.
For `Cc1nn(C)cc1CNc1nccc(-c2csc(-c3cccc([C@]4(O)CCN(C)C4=O)c3)n2)n1` [Example 210], the pIC50 in assay [1] was above 7.00; in assay [2], below 6.30.
With `CN1CC[C@@](O)(c2ccnc(-c3ccn(-c4ccnc(Nc5cnn6cccnc56)n4)n3)c2)C1=O` (single isomer, unassigned) [Example 149, (R)-3-hydroxy-1-methyl-3-(2-(1-(2-(pyrazolo[1,5-a]pyrimidin-3-ylamino)pyrimidin-4-yl)-1H-pyrazol-3-yl)pyridin-4-yl)pyrrolidin-2-one or (S)-3-hydroxy-1-methyl-3-(2-(1-(2-(pyrazolo[1,5-a]pyrimidin-3-ylamino)pyrimidin-4-yl)-1H-pyrazol-3-yl)pyridin-4-yl)pyrrolidin-2-one], the pIC50 in assay [1] was above 7.00; in assay [2], below 6.30.
